Series [1] is described as follows: in vitro. The following applies: CD-1, mouse, liver microsomes.
Series [2] is described as follows: in vitro. The following applies: CD-1, mouse, liver microsomes. This is another data set of the same source.
Series [3] is described as follows: in vitro. The settings on record: human, liver microsomes. For orientation: Liver microsomes are a subcellular fraction often used to study metabolism.
Series [4] can be described thus: in vitro. The following applies: CD-1, mouse, liver microsomes. This is another data set of the same source.
A short description of series [5]: in vitro. The settings on record: human, liver microsomes. This is another data set of the same source.
A short description of series [6]: in vitro. The settings on record: human, liver microsomes. The source holds these as a separate data set.
The nature of series [7]: in vitro. The following applies: human, liver microsomes. The source holds these as a separate data set.
The nature of series [8]: in vitro. The following applies: human, liver microsomes. The source holds these as a separate data set.
The nature of series [9]: in vitro. The following applies: CD-1, mouse, liver microsomes. This is another data set of the same source.
Series [10] can be described thus: in vitro. The following applies: CD-1, mouse, liver microsomes. This is another data set of the same source.
Series [11] in a line: in vitro. The settings on record: human, liver microsomes. The source holds these as a separate data set.
Series [12] in a line: in vitro. The settings on record: CD-1, mouse, liver microsomes. This is another data set of the same source.

As to `O=C(CCc1csc(/C=C/c2ccc(F)cc2)n1)NO`, the fraction remaining at 0 h, 1 µM in the series “in vitro [1]” was 107%; in the series “in vitro [2]” it was 100%; in the series “in vitro [6]”, 106%; in “in vitro [8]” it was 100%. Besides, the amount remaining at 5 min, 1 µM in “in vitro [3]” was found to be 105%; in “in vitro [9]”, 99.8%. Moreover, the share remaining at 0.5 h, 1 µM in the series “in vitro [4]” was 25.2%; in the series “in vitro [5]” it was 112%; in “in vitro [10]” it was 95.8%; in the series “in vitro [11]”, 94.6%. Further, the results for the share remaining at 0.25 h, 1 µM in “in vitro [7]” and in the series “in vitro [12]” were 103% and 68.6%, respectively.
